From patent publication US11925649B2, “Treatments for diabetic neuropathy” (University of Manitoba, priority 2010, dated 2024)

Columns and labels:
[1] = tested on: sensory neurons from DRG of Sprague Dawley rat; assay: Total neurite outgrowth at low concentrations of M1R antagonists (immunostaining); type: cell-based; conditions: 24 hr culture
Method: Sensory neurons from cervical, thoracic and lumbar DRG of an adult 3-4 month old male Sprague Dawley rat were isolated and dissociated using the method described in Example 1, and then were cultured for 24 h in serum-free and insulin-free F12 medium in the presence of modified N2 additives. […] Neurite outgrowth was then assessed after a culture period of 24 hr.
Total neurite lengths (i.e., the sum of the length of all neurites produced by an individual neuron) were assessed using an immunostaining method. […] Four images were captured per well and the replicate well frequency was set to n=6. The neuronal marker β-tubulin III (Sigma-Aldrich Canada Ltd.) was applied to formalin fixed cells. The marker was tagged with the fluorescent conjugate Alexa Fluor 488 (Invitrogen Canada Ltd.). Fluorescent images were collected using an Olympus IX71 inverted microscope with a 20×/0.45 PH1 [sequence] objective that was suitable for resolving images on plastic surfaces. […] Captured image fluorescence was thereafter converted to a grayscale 8-bit image to quantify total pixel volume. […] Total pixel volume of the neuron specific cell bodies and neurites were quantified. […] The net pixel volume was normalized against the number of neuronal cells per quantified field.

[2] = tested on: DRG sensory neurons from wildtype mice; assay: Neurite outgrowth in sensory neuron cultures from wildtype mice; type: cell-based, mouse; conditions: 1 μM, 24 hr, low dose growth factors
[3] = tested on: STZ diabetic C57Bl6J mice; assay: Prophylactic subcutaneous injections in STZ diabetic mice; type: in vivo, mouse
Method: Male C57Bl6J mice were made diabetic with 2 injections of 90 mg/kg STZ on consecutive days, and then separated into four groups.
Two months after the second STZ injection, the function of the small sensory neurons in all five groups of mice were determined by measuring hind paw thermal response latency using a modified Hargreaves apparatus (UARD, San Diego, CA, US) with a heating rate of approximately 1° C./sec from a baseline of 30° C. and with a cut-off at 20 seconds as taught by Calcutt et al. (2004, Diabetologia 47: 718-724). […] Statistical analysis was done using the one-way ANOVA with post-hoc comparison using Tukey's test.
The structural integrity of small sensory neurons was assessed by measuring intraepidermal nerve fiber (IENF) profiles in hind paw plantar skin that was immersion fixed in 4% paraformaldehyde and processed to paraffin blocks. Sections (6 μm) were stained with the pan-neuronal marker PGP9.5 (1:1000, Biogenesis Ltd., Poole, UK) and viewed under a light microscope to allow counting of IENF and sub-epidermal nerve profiles (SNP) per unit length of the dermal: epidermal border using the technique taught by Beiswenger et al. (2008, Neurosci Lett. 442, 267-272). […] Statistical analyses were done using one-way ANOVA followed by Tukey's test.
Motor nerve conduction velocity was measured under isoflurane anesthesia and core and nerve temperature were maintained at 37° C. using a heating pad and lamps following the teachings of Jolivalt et al, (2011, Diabetes Obesity and Metabolism, June 2 Epub ahead of print). The sciatic nerve was stimulated (5V, 0.05 ms pulse, square wave) with needle electrodes at the sciatic notch or ankle. […] The difference in response latencies of the M wave after stimulation at the sciatic notch and ankle was recorded as the time required for the motor nerve conduction between the stimulation sites. The distance between stimulation sites was measured on the surface of the fully extended hind limb and divided by the difference in M wave latencies to calculate sciatic motor nerve conduction velocity (MNCV). […]

[4] = tested on: STZ-diabetic Sprague Dawley rats; assay: Prevention of tactile allodynia and sensory nerve conduction slowing in diabetic rats; type: in vivo, rat
Method: Two groups of adult female Sprague Dawley rats were made diabetic with a single intraperitoneal injection of 55 mg/kg STZ. […] A third group of adult male rats was maintained as non-diabetic controls. The three groups of rats were monitored for the onset of diabetic painful neuropathy by measuring paw tactile response thresholds at weeks 5 and 9 of diabetes, as taught by Calcutt (1996, Pain: 68:293-299). […] Sensory nerve conduction velocity (SNCV) was measured in the same cohorts of rats after 8 weeks of diabetes by measuring under isoflurane anesthesia, the latency of H waves in the electromyogram of interosseous muscles following electrical stimulation of the sciatic nerve at the sciatic notch and Achilles tendon and then measuring the distance between the two points of nerve stimulation, as taught by Calcutt (J. Clin. Invest. 111:507-514, 2003).

[5] = tested on: AMP-activated protein kinase (AMPK); assay: AMPK expression in DRG of STZ-diabetic mice (Western blot); type: in vivo, mouse; conditions: daily s.c. injections for 8 weeks, lumbar DRG
Method: (§1) Lumbar DRG were isolated and rinsed in ice-cold solution containing STE buffer (250 mmol/l sucrose, 10 mmol/l Tris-HCl, 1 mmol/l EDTA, pH 7.4), and then homogenized with a polytron homogenizer ([…] GmbH, Switzerland) using 3×7.5 s grinding pulses at 30 s intervals according to the method taught by Chowdhury et al. (2010, Diabetes 59: 1082-1091).
(§2) Quantitative Western blotting was performed as previously disclosed by Chowdhury et al (2010) and Fernyhough et al. (1999, Diabetes 48: 881-889). DRG homogenates of 5-10 μg of protein were resolved on a 10% SDS-PAGE gel and electroblotted onto nitrocellulose membrane. Blots were then blocked in 5% nonfat milk containing 0.05% Tween-20, rinsed in PBS (pH 7.4) and incubated with the following antibodies: polyclonal anti-phospho AMPK (1:1000, Cell Signaling Technology, Danvers, MA, US), polyclonal anti-PGC-1α (1:1000, Santa Cruz Biotechnology Inc, Santa Cruz, CA, USA) and monoclonal anti-ATP synthase β subunit (1:2000 dilution, Mitosciences, Eugene, OR). Extracellular signal-regulated kinase (ERK; 1:2000, Covance, Princeton, NJ, US) was probed as a loading control (previous studies show this protein to not change level of expression in DRG in diabetes). […]

PGC-1α = PGC-1α expression in DRG of STZ-diabetic mice (Western blot); type: in vivo, mouse; conditions: daily s.c. injections for 8 weeks, lumbar DRG
Method: as §1, §2

COX IV = COX IV expression in DRG of STZ-diabetic mice (Western blot); type: in vivo, mouse; conditions: daily injections for 8 weeks
Method: Quantitative Western blotting was performed as described in Example 15. Quantitative Western blotting was performed as previously disclosed by Chowdhury et al (2010) and Fernyhough et al. (1999). DRG homogenates of 5-10 μg of protein were resolved on a 10% SDS-PAGE gel and electroblotted onto nitrocellulose membrane. Blots were then blocked in 5% nonfat milk containing 0.05% Tween-20, rinsed in PBS (pH 7.4) and incubated with the following antibodies: monoclonal anti-cytochrome c oxidase subunit 4 (COX IV; 1:1000, Mitosciences, Eugene, OR, US), monoclonal anti-NADH dehydrogenase (ubiquinone) iron-sulfur protein 3 (NDUFS3, 1:1000, Mitosciences, Eugene, OR, US). Extracellular signal-regulated kinase (T-ERK; 1:2000, Covance, Princeton, NJ, US) was probed as a loading control. The blots were rinsed, incubated in Western blotting Luminol Reagent (Santa Cruz Biotechnology Inc., Santa Cruz, CA, US) and imaged using a BioRad Fluor-S image analyzer (BioRad, Hercules, CA, US).

[6] = tested on: mitochondrial respiratory complex I; assay: Mitochondrial respiratory complex I activity in DRG of STZ-diabetic mice; type: in vivo, mouse; conditions: daily injections for 8 weeks, lumbar DRG
Method: (§3) All measurements of enzymatic activities in lumbar DRG preparations were performed spectrophotometrically using a temperature controlled Ultrospec 2100 UV-visible spectrophotometer (Biopharmacia Biotech, Uppsala, Sweden) using the methods taught by Chowdhury et al. (2010). Complex I activity was measured as rotenone-sensitive NADH: cytochrome c reductase activity. Freshly prepared assay buffer (50 mmol/l K-phosphate pH 7.4, 1 mmol/l KCN, 100 μmol/l NADH) and 10 μg protein of DRG homogenate preparation were added to the cuvette and preincubated for 3 min at 25° C. After addition of 100 μmol/l oxidized cytochrome c, the reaction was followed for 2 minutes at 550 nm and then for 2 more minutes after addition of 25 μmol/l rotenone to allow calculation of the rotenone-sensitive Complex I activity. Complex IV activity was measured at 25° C. by monitoring the absorbance decrease of reduced cytochrome c at 550 nm as disclosed by Chowdhury et al. (2000, Clin. Chim. Acta 298: 157-173). […] Activity of the Krebs cycle enzyme, citrate synthase, was determined at 25° C. in medium containing 150 mmol/l Tris-HCl (pH 8.2), 0.02% laurylmaltoside, 0.1 mmol/l dithionitrobenzoic acid and 5 μg protein according to the method of Chowdhury et al (2007, Free Radic. Res. 41: 1116-1124). The reaction was initiated by addition of 100 μmol/l acetyl CoA and changes in absorbance at 412 nm were measured for 1 minute. […]

[7] = tested on: mitochondrial respiratory complex IV; assay: Mitochondrial respiratory complex IV activity in DRG of STZ-diabetic mice; type: in vivo, mouse; conditions: daily injections for 8 weeks, lumbar DRG
Method: as §3

[8] = 10 mg/kg daily s.c., two months after STZ, vs control mice

In the case of `CN1CCN(CC(=O)N2c3ccccc3C(=O)Nc3cccnc32)CC1` [pirenzepine, 11-[2-(4-methylpiperazin-1-yl)acetyl]-5H-pyrido[2,3-b][1,4]benzodiazepin-6-1], the “concentration that significantly increased total neurite outgrowth” value [1] is reported as ≥ 0.003 µM, the “neurite outgrowth compared with LD control” value [2] is reported as 2 fold and the “hind paw thermal response latency” value [3, 8] is reported as “not significantly different from the control non-diabetic mice”. The “paw levels of IENF” value [3, 8] was “no significant changes”, the “motor nerve conduction velocity” value ([3]; diabetic mice) was “prevented deficits in motor nerve conduction velocity” and the “paw tactile response thresholds” value ([4]; 10 mg/kg daily s.c., after 5 weeks of diabetes) was “significantly higher than vehicle treated diabetic rats”. For the same compound, the “sensory nerve conduction velocity (SNCV)” value ([4]; 10 mg/kg daily s.c., after 8 weeks of diabetes) was “partially prevented this deficit”, the “paw tactile response thresholds” value ([4]; 10 mg/kg daily s.c., week 9 of diabetes) was “not different from control rats” and the paw tactile allodynia ([4]; daily s.c., after 5 or 9 weeks of treatment) was “prevents paw tactile allodynia”. The “expression of P-AMPK” value [5] was “restored the expression”, the “expression of T-AMPK” value [5] was “restored the expression” and the “expression of PGC-1α” value (PGC-1α) was “restored the expression”. The “expression of COX IV mitochondrial protein” value (COX IV) was “restored the expression”, the “activity of mitochondrial respiratory complex I” value [6] was “restored the deficits” and the “activity of mitochondrial respiratory complex IV” value [7] was “restored the deficits”.
